# Test results reported in US20250091989A1, “SMALL MOLECULE PROTEIN SYNTHESIS MODULATORS” (Interdict Bio, Inc., priority 2023, published 2025).
# Experiments:
# Assay type in all cases: biochemical
# Conditions in all cases: HeLa S3 lysate, sfGFP/mCherry ratio, 2 hrs at 30° C.
# ALK = assay: In vitro transcription-translation (IVTT) reporter assay, ALK test sequence
# Excerpt: (§1) All reporter constructs have been cloned into the pT7CFE1-CHis plasmid (ThermoFisher #88860) using Gibson assembly procedures (NEB #E2611L). The parental pT7CFE1-CHis plasmid contains an EMCV IRES at the 5′UTR for translation initiation, a multiple-cloning site (MCS) for gene insertion, an optional C-terminal His-epitope tag, and polyA sequence in the 3′UTR to regulate mRNA stability. All reporters are designed to be inserted at the MCS to include a red fluorescent protein (mCherry), P2A self-cleaving peptide which releases the preceding mCherry protein product, and a fusion open reading frame containing a 3×FLAG epitope, a peptide sequence of interest (TEST), and green fluorescent protein (sfGFP).
# (§2) Construct Plasmid Preparation: All plasmids are isolated from MACH1 cells (ThermoFisher) grown overnight in ampicillin-containing luria broth, and purified using ZymoPure Express Plasmid Midiprep Kit (Zymo Research). Constructs are sequenced verified and diluted to a working concentration of 110 ng/μL.
# (§3) HeLa S3 Lysate Preparation: HeLa S3 cell pellets are acquired from Ipracell/Ipratech (Belgium) and shipped as 4 mL frozen cell pellets on dry ice for storage at −80° C. until use. The procedure for lysate preparation is as follows. Prepare 1× Lysis Buffer, cold and stored on ice:
# (§4) Each preparation takes 8 cell pellets (4 ml packed volume each, approximately 1.0×10^9 cells per pellet). Thaw cell pellets from −80° C. on ice for 90 mins. Lay pellets horizontally on top of the ice and rotate every 30 mins to ensure even thawing. Once thawed, add 4 mL of cold lysis buffer to each pellet, and using a serological pipet, gently pipet up and down to break up clumps. Incubate resuspended cells in ice for an additional 30 mins (plunged into ice). During 30 min incubation, rinse and RNase-zap (Ambion) glass dounces (use loose pestle “A”), gently dry and place on ice until needed. Prepare RNase-free Eppendorf tubes for spinning and for batch storage. Add batch labels to 1.5-1.7 mL RNase-free microcentrifuge tubes (labeling scheme below). Each batch will have an extra 1.5-1.7 mL RNase-free microcentrifuge tube for 40 μL of lysate, label the top of this tube (labeling scheme below). After 30 min incubation, transfer all 8 mL of cell pellet to dounce. Cell lysis is complete after douncing 100 times. Aliquot cell lysis into 1.5-1.7 mL temporary-microcentrifuge tubes. Place tubes in centrifuge with “fins” out, and spin at 1,200 xg for 5 mins. After the first spin use a 1 mL pipet to resuspend each tube and repeat spin. This acts as an additional lysis step, is more vigorous and increases lysate yield. During second spin get liquid N2 and a fresh conical tube on ice.
# (§5) After spin is complete, transfer supernatant (lysate) from microcentrifuge tubes into the 50 mL conical tube and keep on ice. Repeat steps 10-14 for all other cell pellets until completed. Once all cell lysate has been transferred to the 50 mL conical tube pipet to mix so the solution is homogenous. Transfer 1 mL of lysate into batch-labeled microcentrifuge tubes and flash freeze in liquid nitrogen. Be sure to pipet up and down to mix throughout transfer step. Place all tubes in the […] for long-term storage.
# (§6) In vitro transcription-translation assay setup: Each assay includes a master mix containing lysate and shared components, a 96-well plate containing compound titrations for testing, a 96-well DNA plate with reporter constructs to be tested, 96-well skirted PCR plates, and 96-well flat-bottom, black, fluorescent assay plates. […]
# MYC = assay: In vitro transcription-translation (IVTT) reporter assay, MYC test sequence
# Excerpt: as §1, §2, §3, §4, §5, §6
# KRAS G12D = assay: In vitro transcription-translation (IVTT) reporter assay, KRAS G12D test sequence
# Excerpt: as §1, §2, §3, §4, §5, §6
SMILES,IC50 (ALK),IC50 (MYC),IC50 (KRAS G12D)
"COc1ccc(C[C@H]2NC[C@H](O)[C@H]2OC(=O)[C@H]2CCCO2)cc1 [V186824, (2R,3S,4S)-4-hydroxy-2-[(4-methoxyphenyl)methyl]pyrrolidin-3-yl (2R)-oxolane-2-carboxylate]",< 10 µM,> 30 µM,> 30 µM
"COc1ccc(C[C@H]2NC[C@H](O)[C@H]2OC(=O)C2CN(Cc3ccccc3)C2)cc1 [V000173, (2R,3S,4S)-4-hydroxy-2-[(4-methoxyphenyl)methyl]pyrrolidin-3-yl 1-benzylazetidine-3-carboxylate]",> 30 µM,> 30 µM,> 30 µM
"CCC1(C(=O)O[C@@H]2[C@@H](O)CN[C@@H]2Cc2ccc(OC)cc2)COC1 [V186781, (2R,3S,4S)-4-hydroxy-2-[(4-methoxyphenyl)methyl]pyrrolidin-3-yl 3-ethyloxetane-3-carboxylate]",> 30 µM,> 30 µM,> 30 µM
"COc1ccc(C[C@H]2NC[C@H](O)[C@H]2OC(=O)CCN2CC(=O)NCC2=O)cc1 [V186849, (2R,3S,4S)-4-hydroxy-2-[(4-methoxyphenyl)methyl]pyrrolidin-3-yl 3-(2,5-dioxopiperazin-1-yl)propanoate]",< 10 µM,10 to 20 µM,> 30 µM
"COc1ccc(C[C@H]2NC[C@H](O)[C@H]2OC(=O)Cc2noc(C)n2)cc1 [V187175, (2R,3S,4S)-4-hydroxy-2-[(4-methoxyphenyl)methyl]pyrrolidin-3-yl 2-(5-methyl-1,2,4-oxadiazol-3-yl)acetate; trifluoroacetic acid]",< 10 µM,< 10 µM,< 10 µM
"COc1ccc(C[C@H]2NC[C@H](O)[C@H]2OC(=O)Cc2ccc(OC(F)(F)F)cc2)cc1 [V187159, (2R,3S,4S)-4-hydroxy-2-[(4-methoxyphenyl)methyl]pyrrolidin-3-yl 2-[4-(trifluoromethoxy)phenyl]acetate]",10 to 20 µM,10 to 20 µM,> 30 µM
"COc1ccc(C[C@H]2NC[C@H](O)[C@H]2OC(=O)C2CN(CC3COC3)C2)cc1 [V186772, (2R,3S,4S)-4-hydroxy-2-[(4-methoxyphenyl)methyl]pyrrolidin-3-yl 1-(oxetan-3-ylmethyl)azetidine-3-carboxylate]",> 30 µM,> 30 µM,> 30 µM
"COc1ccc(C[C@H]2NC[C@H](O)[C@H]2OC(=O)Cc2nnc(N)s2)cc1 [V187048, (2R,3S,4S)-4-hydroxy-2-[(4-methoxyphenyl)methyl]pyrrolidin-3-yl 2-(5-amino-1,3,4-thiadiazol-2-yl)acetate]",< 10 µM,< 10 µM,< 10 µM
"COc1ccc(C[C@H]2NC[C@H](O)[C@H]2OC(=O)CCN2CCN(C)CC2)cc1 [V186858, (2R,3S,4S)-4-hydroxy-2-[(4-methoxyphenyl)methyl]pyrrolidin-3-yl 3-(4-methylpiperazin-1-yl)propanoate; trifluoroacetic acid]",> 30 µM,> 30 µM,> 30 µM
COc1ccc(C[C@H]2NC[C@H](O)[C@H]2OC(=O)COCc2nnc(C)s2)cc1 [V187720],< 10 µM,< 10 µM,< 10 µM
"COCCOCCOCC(=O)O[C@@H]1[C@@H](O)CN[C@@H]1Cc1ccc(OC)cc1 [V187184, (2R,3S,4S)-4-hydroxy-2-[(4-methoxyphenyl)methyl]pyrrolidin-3-yl 2-[2-(2-methoxyethoxy)ethoxy]acetate]",< 10 µM,< 10 µM,< 10 µM
COCCOCC(=O)O[C@@H]1[C@@H](O)CN[C@@H]1Cc1ccc(OC)cc1 [V186783],< 10 µM,< 10 µM,< 10 µM
"COc1ccc(C[C@H]2NC[C@H](O)[C@H]2OC(=O)C2CCS(=N)(=O)CC2)cc1 (stereo partly drawn) [V186712, (2R,3S,4S)-4-hydroxy-2-[(4-methoxyphenyl)methyl]pyrrolidin-3-yl (1 s)-1-imino-1-oxo-1lambda6-thiane-4-carboxylate]",> 30 µM,> 30 µM,> 30 µM
COc1ccc(C[C@H]2NC[C@H](O)[C@H]2OC(=O)C[C@H]2CCNC2)cc1 [V187689],< 10 µM,< 10 µM,< 10 µM
"COc1ccc(C[C@H]2NC[C@H](O)[C@H]2OC(=O)C23CC(F)(C2)C3)cc1 [V187044, (2R,3S,4S)-4-hydroxy-2-[(4-methoxyphenyl)methyl]pyrrolidin-3-yl 3-fluorobicyclo[1.1.1]pentane-1-carboxylate; trifluoroacetic acid]",< 10 µM,10 to 20 µM,> 30 µM
"COc1ccc(C[C@H]2NC[C@H](O)[C@H]2OC(=O)CCN2CCNCC2)cc1 [V186857, (2R,3S,4S)-4-hydroxy-2-[(4-methoxyphenyl)methyl]pyrrolidin-3-yl 3-(piperazin-1-yl)propanoate]",< 10 µM,> 30 µM,> 30 µM
"COc1ccc(C[C@H]2NC[C@H](O)[C@H]2OC(=O)CC2COC2)cc1 [V0111, (2R,3S,4S)-4-hydroxy-2-[(4-methoxyphenyl)methyl]pyrrolidin-3-yl 2-(oxetan-3-yl)acetate]",< 10 µM,< 10 µM,< 10 µM
"COc1ccc(C[C@H]2NC[C@H](O)[C@H]2OC(=O)CCC2CNC2)cc1 [V186873, (2R,3S,4S)-4-hydroxy-2-[(4-methoxyphenyl)methyl]pyrrolidin-3-yl 3-(azetidin-3-yl)propanoate]",< 10 µM,< 10 µM,< 10 µM
"COc1ccc(C[C@H]2NC[C@H](O)[C@H]2OC(=O)[C@@H]2CCCO2)cc1 [V186825, (2R,3S,4S)-4-hydroxy-2-[(4-methoxyphenyl)methyl]pyrrolidin-3-yl (2S)-oxolane-2-carboxylate]",< 10 µM,< 10 µM,< 10 µM
"COc1ccc(C[C@H]2NC[C@H](O)[C@H]2OC(=O)C2(OCc3ccccc3)CNC2)cc1 [V000192, (2R,3S,4S)-4-hydroxy-2-(4-methoxybenzyl) pyrrolidin-3-yl 3-(benzyloxy)azetidine-3-carboxylate]",> 30 µM,> 30 µM,> 30 µM
"COc1ccc(C[C@H]2NC[C@H](O)[C@H]2OC(=O)CCN2CC(=O)NC(=O)C2)cc1 [V186859, (2R,3S,4S)-4-hydroxy-2-[(4-methoxyphenyl)methyl]pyrrolidin-3-yl 3-(3,5-dioxopiperazin-1-yl)propanoate; trifluoroacetic acid]",< 10 µM,< 10 µM,< 10 µM
"CC(=O)O[C@@H]1[C@@H](O)CN[C@@H]1Cc1ccc(Br)cc1 [V187010, (2R,3S,4S)-2-[(4-bromophenyl)methyl]-4-hydroxypyrrolidin-3-yl acetate; trifluoroacetic acid]",< 10 µM,< 10 µM,< 10 µM
COc1ccc(C[C@H]2NC[C@H](O)[C@H]2OC(=O)CCN2CC(=O)N(C)CC2=O)cc1 [V186850],20 to 30 µM,> 30 µM,> 30 µM
"COc1ccc(C[C@H]2NC[C@H](O)[C@H]2OC(=O)CNc2c(N)c(=O)c2=O)cc1 [V000215, (2R,3S,4S)-4-hydroxy-2-[(4-methoxyphenyl)methyl]pyrrolidin-3-yl 2-[(2-amino-3,4-dioxocyclobut-1-en-1-yl)amino]acetate]",< 10 µM,< 10 µM,< 10 µM
COc1ccc(C[C@H]2NC[C@H](O)C2OC(=O)COCc2ccc3nonc3c2)cc1 (stereo partly drawn) [V187179],< 10 µM,< 10 µM,< 10 µM
